Patent US11034692B1 (Genentech, Inc., priority 2017, dated 2021)

Columns and labels:
HPK1 [1] = biological target: HPK1 (Homo sapiens, UniProt Q92918); assay: HPK1 Lantha Binding Assay ("Lanth"); settings: Table B1-1, read-out: HPK1 Ki (μM) (Lanth)
Summary of the method: (§1)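 TR-FRET tracer displacement with 2 nM GST-tagged kinase, 2 nM Eu-anti-GST antibody and 15 nM Tracer222 at 23 C. Enzyme–antibody preincubated 1 h with compound, then tracer added for 1 h; 340 nm excitation, 615/665 nm emission. Ki from Morrison fit over an 11-point 5-fold dilution.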

HPK1 [2] = assay: HPK1 Lantha Binding Assay ("Lanth"); settings: Table B1-2, read-out: HPK1 Ki, L = Lanth
Summary of the method: as §1

Sequence of HPK1 (Homo sapiens, UniProt Q92918) (Q92918 whole entry, looked up): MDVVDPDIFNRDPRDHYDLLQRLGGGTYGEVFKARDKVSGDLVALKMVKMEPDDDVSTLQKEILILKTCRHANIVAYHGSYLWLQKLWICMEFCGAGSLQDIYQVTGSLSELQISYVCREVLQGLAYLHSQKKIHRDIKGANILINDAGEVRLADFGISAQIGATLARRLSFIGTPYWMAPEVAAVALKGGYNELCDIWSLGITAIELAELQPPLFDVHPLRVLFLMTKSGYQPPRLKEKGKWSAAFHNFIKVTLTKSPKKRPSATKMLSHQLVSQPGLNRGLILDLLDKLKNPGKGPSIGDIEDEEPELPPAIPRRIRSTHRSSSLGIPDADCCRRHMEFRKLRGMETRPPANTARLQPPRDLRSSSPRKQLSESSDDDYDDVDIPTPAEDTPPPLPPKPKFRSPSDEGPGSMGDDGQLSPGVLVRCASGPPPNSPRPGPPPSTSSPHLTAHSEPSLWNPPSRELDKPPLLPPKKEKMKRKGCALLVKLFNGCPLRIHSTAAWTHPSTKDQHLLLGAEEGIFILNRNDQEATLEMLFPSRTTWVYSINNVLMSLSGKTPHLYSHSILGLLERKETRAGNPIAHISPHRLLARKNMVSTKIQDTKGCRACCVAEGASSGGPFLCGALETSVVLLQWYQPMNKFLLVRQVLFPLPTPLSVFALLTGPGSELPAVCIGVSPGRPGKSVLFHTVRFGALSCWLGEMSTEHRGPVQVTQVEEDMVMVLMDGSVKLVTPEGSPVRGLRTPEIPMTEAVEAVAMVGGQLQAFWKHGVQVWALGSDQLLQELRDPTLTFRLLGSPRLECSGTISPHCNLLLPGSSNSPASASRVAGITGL

| Ki (HPK1 [1]) [µM] | Ki (HPK1 [2]) [nM] | Structure (SMILES) |
| --- | --- | --- |
| 0.00156 | – | Cc1c(-c2cc3cc(NC(=O)[C@@H]4C[C@@H]4F)ncc3c(N)n2)cnn1C (racemic) [Compound 2, (±)-cis-N-(8-amino-6-(1,5-dimethyl-1H-pyrazol-4-yl)-2,7-naphthyridin-3-yl)-2-fluorocyclopropanecarboxamide] |
| 0.00514 | – | Cc1nn(C)c(C)c1-c1cc2cc(NC(=O)[C@@H]3C[C@@H]3F)ncc2c(N)n1 (racemic) [Compound 3, (±)-cis-N-(8-amino-6-(1,3,5-trimethyl-1H-pyrazol-4-yl)-2,7-naphthyridin-3-yl)-2-fluorocyclopropanecarboxamide] |
| 0.00164 | – | Cn1cc(-c2cc3cc(NC(=O)[C@H]4C[C@@H]4F)ncc3c(N)n2)cn1 (racemic) [Compound 8, trans-N-(8-amino-6-(1-methyl-1H-pyrazol-4-yl)-2,7-naphthyridin-3-yl)-2-fluorocyclopropanecarboxamide] |
| 0.00721 | – | Cc1cc(N)ncc1-c1cc2cc(NC(=O)[C@@H]3C[C@@H]3F)ncc2c(N)n1 (racemic) [Compound 16, (±)-cis-N-(8-amino-6-(6-amino-4-methylpyridin-3-yl)-2,7-naphthyridin-3-yl)-2-fluorocyclopropanecarboxamide] |
| 0.00276 | – | N#C[C@@H]1C[C@@H]1C(=O)Nc1cc2cc(-c3cncc4[nH]ccc34)nc(N)c2cn1 (racemic) [Compound 21, (±)-cis-N-(8-amino-6-(1H-pyrrolo[2,3-c]pyridin-4-yl)-2,7-naphthyridin-3-yl)-2-cyanocyclopropanecarboxamide] |
| 0.034 | – | CCc1ccncc1-c1cc2cc(NC(=O)NC(C)C(N)=O)ncc2c(N)n1 (racemic) [Compound 34, 2-[[8-amino-6-(4-ethyl-3-pyridyl)-2,7-naphthyridin-3-yl]carbamoylamino]propanamide] |
| 0.0484 | – | Cc1ccncc1-c1cc2cc(NC(=O)C(C)C#N)ncc2c(N)n1 (racemic) [Compound 38, N-(8-amino-6-(4-methylpyridin-3-yl)-2,7-naphthyridin-3-yl)-2-cyanopropanamide] |
| 0.00205 | – | Cc1ccncc1-c1cc2cc(NC(=O)[C@@H]3C[C@H]3C#N)ncc2c(N)n1 (racemic) [Compound 43, trans-N-(8-amino-6-(4-methylpyridin-3-yl)-2,7-naphthyridin-3-yl)-2-cyanocyclopropanecarboxamide] |
| 0.00152 | – | Nc1nc(-c2cnccc2C2CC2)cc2cc(NC(=O)[C@@H]3C[C@@H]3F)ncc12 (racemic) [Compound 46, (±)-cis-N-(8-amino-6-(4-cyclopropylpyridin-3-yl)-2,7-naphthyridin-3-yl)-2-fluorocyclopropanecarboxamide] |
| 0.0103 | – | Cc1cc(C(N)=O)ccc1-c1cc2cc(NC(=O)[C@@H]3C[C@@H]3F)ncc2c(N)n1 (racemic) [Compound 48, (±)-4-(1-amino-6-((cis)-2-fluorocyclopropanecarboxamido)-2,7-naphthyridin-3-yl)-3-methylbenzamide] |
| 0.00682 | – | CNC(=O)c1ccc(-c2cc3cc(NC(=O)[C@@H]4C[C@@H]4F)ncc3c(N)n2)c(C)c1 (racemic) [Compound 49, 4-(1-amino-6-((cis)-2-fluorocyclopropanecarboxamido)-2,7-naphthyridin-3-yl)-N,3-dimethylbenzamide] |
| 0.0059 | – | CC(C)c1ccncc1-c1cc2cc(NC(=O)[C@H]3C[C@@H]3C#N)ncc2c(N)n1 (racemic) [Compound 50, trans-N-(8-amino-6-(4-isopropylpyridin-3-yl)-2,7-naphthyridin-3-yl)-2-cyanocyclopropanecarboxamide] |
| 0.0013 | – | Cc1ccncc1-c1cc2cc(NC(=O)[C@@H]3C[C@H]3F)ncc2c(N)n1 (racemic) [Compound 51, (±)-trans-N-(8-amino-6-(4-methylpyridin-3-yl)-2,7-naphthyridin-3-yl)-2-fluorocyclopropanecarboxamide] |
| 0.00298 | – | Cc1c(-c2cc3cc(NC(=O)[C@@H]4C[C@@H]4F)ncc3c(N)n2)cnc2nc[nH]c12 (racemic) [Compound 52, (±)-cis-N-(8-amino-6-(7-methyl-1H-imidazo [4,5-b]pyridin-6-yl)-2,7-naphthyridin-3-yl)-2-fluorocyclopropanecarboxamide] |
| 0.000736 | – | CCc1ccncc1-c1cc2cc(NC(=O)[C@H]3C[C@@H]3COC)ncc2c(N)n1 (racemic) [Compound 53, (±)-trans-N-(8-amino-6-(4-ethylpyridin-3-yl)-2,7-naphthyridin-3-yl)-2-(methoxymethyl) cyclopropane carboxamide] |
| 0.0489 | – | Nc1nc(N2CCCC2CCO)cc2cc(NC(=O)[C@@H]3C[C@@H]3F)ncc12 (mixture of isomers) [Compound 54, (±)-cis-N-(8-amino-6-(2-(2-hydroxyethyl)pyrrolidin-1-yl)-2,7-naphthyridin-3-yl)-2-fluorocyclopropanecarboxamide] |
| 0.0064 | – | COc1cc(-c2cc3cc(NC(=O)[C@@H]4C[C@@H]4F)ncc3c(N)n2)c(C)cn1 (racemic) [Compound 55, cis-N-(8-amino-6-(2-methoxy-5-methylpyridin-4-yl)-2,7-naphthyridin-3-yl)-2-fluorocyclopropanecarboxamide] |
| 0.0004 | – | CCc1ccncc1-c1cc2cc(Nc3cc(C(O)CC)ccn3)ncc2c(N)n1 (racemic) [Compound 82, (±)-1-{2-[8-Amino-6-(4-ethylpyridin-3-yl)-[2,7]naphthyridin-3-ylamino]-pyridin-4-yl}propan-1-ol] |
| 0.0707 | – | N#C[C@@H]1C[C@H]1C(=O)Nc1cc2cc(-c3cncc4c3CCCC4O)nc(N)c2cn1 (mixture of isomers) [Compound 99, (±)-trans-N-(8-amino-6-(8-hydroxy-5,6,7,8-tetrahydroisoquinolin-4-yl)-2,7-naphthyridin-3-yl)-2-cyanocyclopropane-1-carboxamide] |
| 0.00497 | – | Nc1nc(-c2cccnc2)cc2cc(NC(=O)[C@@H]3C[C@@H]3F)ncc12 (racemic) [Compound 106, (±)-cis-N-(8-amino-6-(pyridin-3-yl)-2,7-naphthyridin-3-yl)-2-fluorocyclopropane-1-carboxamide] |
| 0.00187 | – | N#C[C@@H]1C[C@H]1C(=O)Nc1cc2cc(-c3cn[nH]c3)nc(N)c2cn1 (racemic) [Compound 112, (±)-trans-N-(8-amino-6-(1H-pyrazol-4-yl)-2,7-naphthyridin-3-yl)-2-cyanocyclopropane-1-carboxamide] |
| 0.00224 | – | CC(C)c1[nH]ncc1-c1cc2cc(NC(=O)[C@@H]3C[C@H]3C#N)ncc2c(N)n1 (racemic) [Compound 114, (±)-trans-N-(8-amino-6-(5-isopropyl-1H-pyrazol-4-yl)-2,7-naphthyridin-3-yl)-2-cyanocyclopropane-1-carboxamide] |
| 0.000476 | – | Cc1ccncc1-c1cc2cc(NC(=O)[C@@H]3C[C@H]3C)ncc2c(N)n1 (racemic) [Compound 118, (±)-trans-N-(8-amino-6-(4-methylpyridin-3-yl)-2,7-naphthyridin-3-yl)-2-methylcyclopropane-1-carboxamide] |
| 2.4 | – | Cc1ccncc1-c1cc2cc(NC3CCNC3)ncc2c(N)n1 (racemic) [Compound 120, (±)-3-(4-methyl-3-pyridyl)-N6-pyrrolidin-3-yl-2,7-naphthyridine-1,6-diamine] |
| – | 8 | COCc1cccc(C)c1-c1cc2cc(NC(=O)[C@@H]3C[C@H]3c3cnn(C)c3)ncc2c(N)n1 [Compound 428, (1R,2R)-N-(8-amino-6-(2-(methoxymethyl)-6-methylphenyl)-2,7-naphthyridin-3-yl)-2-(1-methyl-1H-pyrazol-4-yl)cyclopropane-1-carboxamide] |
